Results from the supplement of paper PMC11451515.

Tests used:
SEM cells [1] = assay: cell viability relative to DMSO control; higher = less cytotoxic; conditions: 48 h
In short: (§1)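 In 1536-well plates, 5 μl of leukemia cells were seeded per well: 500 cells/well for NOMO1 or SEM and 1000 cells/well for P12-Ichikawa. Each line had first been adapted for at least four passages in each medium. Library compounds in DMSO were pin-dosed at 11 threefold concentrations between 47 μM and 0.79 nM, and CellTiter-Glo One luminescence was read after 48 h at 37°C. Viability is a per-plate percentage relative to DMSO wells, with cell-free wells as background.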

NOMO1 = assay: AUC of viability dose-response curve (% viability x log10 dose units); higher = less sensitive; conditions: 48 h
In short: (§2)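 Leukemia cells adapted to each medium (500 or 1000 cells/well, 1536-well plates) were exposed to library compounds in DMSO for 48 h at 37°C at 11 threefold doses, 47 μM to 0.79 nM. Luminescence by CellTiter-Glo One was normalised per plate to DMSO and cell-free wells, then fitted with a four-parameter log-logistic curve on log10 dose. Curves above full viability were scaled and quality-control failures removed before area under the curve was integrated by trapezoidal rule.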

P12-Ichikawa [2] = assay: as above; conditions: 48 h
In short: as §2

SEM cells [3] = assay: as above; conditions: 48 h
In short: as §2

P12-Ichikawa [4] = assay: cell viability relative to DMSO control; higher = less cytotoxic; conditions: RPMI 5 mM glucose + 10% dialyzed FBS, 48 h
In short: as §1

[5] = HPLM + 10% dialyzed FBS, 0.000781 µM
[6] = HPLM + 10% dialyzed FBS, 0.00234 µM
[7] = HPLM + 10% dialyzed FBS, 0.00702 µM
[8] = HPLM + 10% dialyzed FBS, 0.0211 µM
[9] = HPLM + 10% dialyzed FBS, 0.0632 µM
[10] = HPLM + 10% dialyzed FBS, 0.19 µM
[11] = HPLM + 10% dialyzed FBS, 0.569 µM
[12] = HPLM + 10% dialyzed FBS, 1.71 µM
[13] = HPLM + 10% dialyzed FBS, 5.12 µM
[14] = HPLM + 10% dialyzed FBS, 15.4 µM
[15] = HPLM + 10% dialyzed FBS, 46.1 µM
[16] = RPMI 5 mM glucose + 10% dialyzed FBS

| Structure (SMILES) | cell viability (SEM cells [1]; [5]) | cell viability (SEM cells [1]; [6]) | cell viability (SEM cells [1]; [7]) | cell viability (SEM cells [1]; [8]) | cell viability (SEM cells [1]; [9]) | cell viability (SEM cells [1]; [10]) | cell viability (SEM cells [1]; [11]) | cell viability (SEM cells [1]; [12]) | cell viability (SEM cells [1]; [13]) | cell viability (SEM cells [1]; [14]) | cell viability (SEM cells [1]; [15]) | AUC of viability dose-response curve (NOMO1; HPLM + 10% dialyzed FBS) | AUC of viability dose-response curve (NOMO1; RPMI 5 mM glucose + 10% FBS) | AUC of viability dose-response curve (NOMO1; [16]) | AUC of viability dose-response curve (P12-Ichikawa [2]; HPLM + 10% dialyzed FBS) | AUC of viability dose-response curve (P12-Ichikawa [2]; RPMI 5 mM glucose + 10% FBS) | AUC of viability dose-response curve (P12-Ichikawa [2]; [16]) | AUC of viability dose-response curve (SEM cells [3]; HPLM + 10% dialyzed FBS) | AUC of viability dose-response curve (SEM cells [3]; RPMI 5 mM glucose + 10% FBS) | AUC of viability dose-response curve (SEM cells [3]; [16]) | further results |
| --- | --- | --- | --- | --- | --- | --- | --- | --- | --- | --- | --- | --- | --- | --- | --- | --- | --- | --- | --- | --- | --- |
| NC/1=N/C(=O)N/C=C1F | 118% | 145% | 123% | 134% | 118% | 125% | 125% | 136% | 130% | 120% | 103% | 417 | 432 | 405 | 455 | 438 | 432 | 468 | 464 | 429 | – |
| Cc1c(C(=O)Nc2ccc(N3C[C@@H](C)O[C@@H](C)C3)nc2)cccc1-c1ccc(OC(F)(F)F)cc1 | 113% | 125% | 116% | 133% | 131% | 124% | 132% | 108% | 16.3% | 6.58% | 4.61% | 366 | 382 | 408 | 349 | 372 | 372 | 361 | 335 | 356 | cell viability (P12-Ichikawa [4]; 0.000781 µM): 128%; cell viability (P12-Ichikawa [4]; 0.00234 µM): 119%; cell viability (P12-Ichikawa [4]; 0.00702 µM): 119%; cell viability (P12-Ichikawa [4]; 0.0211 µM): 131%; cell viability (P12-Ichikawa [4]; 0.0632 µM): 131%; cell viability (P12-Ichikawa [4]; 0.19 µM): 126%; cell viability (P12-Ichikawa [4]; 0.569 µM): 124%; cell viability (P12-Ichikawa [4]; 1.71 µM): 104%; cell viability (P12-Ichikawa [4]; 5.12 µM): 48.6%; cell viability (P12-Ichikawa [4]; 15.4 µM): 7.92%; cell viability (P12-Ichikawa [4]; 46.1 µM): 6.12% |
| COc1ccc2c(c[n+](C)c3c4cc5c(cc4ccc23)OCO5)c1OC | – | – | – | – | – | – | – | – | – | – | – | 438 | 447 | 449 | 423 | 406 | 404 | 407 | 397 | 402 | – |
| CN(C)CCN(C)CCc1ccc(Cl)c(Cl)c1 | 118% | 114% | 132% | 131% | 128% | 131% | 127% | 119% | 122% | 114% | 114% | 473 | 473 | 473 | 467 | 465 | 466 | 466 | 458 | 451 | cell viability (SEM cells [1]; RPMI 5 mM glucose + 10% FBS, 0.000781 µM): 123%; cell viability (SEM cells [1]; RPMI 5 mM glucose + 10% FBS, 0.00234 µM): 101%; cell viability (SEM cells [1]; RPMI 5 mM glucose + 10% FBS, 0.00702 µM): 121%; cell viability (SEM cells [1]; RPMI 5 mM glucose + 10% FBS, 0.0211 µM): 125%; cell viability (SEM cells [1]; RPMI 5 mM glucose + 10% FBS, 0.0632 µM): 124%; cell viability (SEM cells [1]; RPMI 5 mM glucose + 10% FBS, 0.19 µM): 133%; cell viability (SEM cells [1]; RPMI 5 mM glucose + 10% FBS, 0.569 µM): 145%; cell viability (SEM cells [1]; RPMI 5 mM glucose + 10% FBS, 1.71 µM): 132%; cell viability (SEM cells [1]; RPMI 5 mM glucose + 10% FBS, 5.12 µM): 127%; cell viability (SEM cells [1]; RPMI 5 mM glucose + 10% FBS, 15.4 µM): 131%; cell viability (SEM cells [1]; RPMI 5 mM glucose + 10% FBS, 46.1 µM): 126% |
